Results on 4 compounds are retold here after patent US9700633B2, “Conjugates of water soluble polymer-amino acid oligopeptide-drug, preparation method and use thereof” (JENKEM TECHNOLOGY CO. LTD., TIANJIN BRANCH, priority 2013, dated 2017).

Values joined by “and” are separate entries in the source; they are usually repeats but may differ in a detail not shown here. Identical values can stand only once. Counter-ions that a name gives are not always drawn. Marks after values point to notes of the source that are not given here.

Data set [1] in a line: In vitro degradation assay in 0.01 M PBS buffer solution. It is filed as physicochemical. As to the method:
In order to determine the degradation of the compounds in PBS buffer solution, the compounds DSR1˜6 were dissolved in 0.01 M PBS buffer solution, and were sampled every 30 min.

The test system of data set [2] is human colon cancer HT-29. As to the kind of experiment: Xenografted tumor of human colon cancer HT-29 in nude mice. It is filed as in vivo, BALB/cA nude mice. Particulars: iv.
Data set [3] concerns human ovarian cancer SKOV-3. Nature of the data set: Xenografted tumor of human ovarian cancer SKOV-3 in nude mice. It is filed as in vivo, BALB/cA nude mice. Particulars: iv; for number of animals with vanished tumor: d28, 6 mice per group.
Data set [4] relates to human colon cancer HCT-116. Nature of the data set: Xenografted tumor of human colon cancer HCT-116 in nude mice. Particulars: iv. It is filed as in vivo, BALB/cA nude mice. The procedure: The diameter of subcutaneously xenografted tumor of the nude mice was measured by the caliper.
Data set [5] has as its system human lung cancer A549. As to the kind of experiment: Xenografted tumor of human lung cancer A549 in nude mice. The class given is in vivo, BALB/cA nude mice. As to conditions: iv.
Data set [6] deals with PC-3 human prostate cancer. As to the kind of experiment: Subcutaneous tumor model of PC-3 human prostate cancer. It is filed as in vivo, Balb/c nude mouse. Particulars: 10 mg/kg; for Relative tumor volume (x ± SE): intravenous twice a week. The procedure: PC-3 cells were subcutaneously inoculated at the right side on the back of Balb/c nude mouse so as to establish a subcutaneous xenograft animal model of human prostate cancer. When the average tumor volume reached 160 mm^3, the experiment mice were divided to different groups, with 8 mice for each group, and the drugs were administrated by intravenous injections twice a week. The therapeutic effect was evaluated based on relative tumor proliferation ratio (T/C %).
PC-3 cell line was cultured in vitro in Ham's F12K medium with supplement of 10% fetal calf serum and L-glutamine (2 mM) at 37° C. in an atmosphere with 5% CO2 for the tumor cells culture. The tumor cells were routinely passaged twice a week. Tumor cells in exponential growth phase were collected, then were suspended in a mixture of PBS: matrigel with equal volume ratio and were placed on ice for tumor inoculation.
5×10^6 PC-3 cells were subcutaneously inoculated at the right side on the back of experiment mice. The mice were monitored at regular intervals for the tumor growth. When tumor grew to average 160 mm^3, the mice were divided to groups randomly according to the tumor volume and the mouse body weight, and were administrated.
(§1) All of the operations relevant to operation, nursing and treatment in this investigation were conducted according to guidelines approved by Association for Assessment and Accreditation of Laboratory Animal Care (AAALAC). After the incoluation, the incidence of disease and death of animals were observed every day. In the process of daily observation, the effects of tumor growth on normal behavior of animals (such as exercise, feeding, drinking, body weight change, eyes, hair) as well as any other abnormality were attentively monitored. Death and clinical symptom were recorded for animals in each group.
The calculation formula for tumor volume is as follows: tumor volume (mm^3)=0.5×(long diameter of the tumor×short diameter of the tumor^2). RTV and T/C ratios were calculated according to the tumor volumes of the treatment groups and the control group. RTV refers to relative tumor volume. T/C ratio refers to the percentage value of the relative tumor volumes of the treatment groups and the control group at a time point after the treatment, which reflects the anti-tumor effects of different treatment groups. At the end of the experiment, the pictures of the tumors were recorded according to the following two methods: 1. after euthanatized by CO2, the animals in each group were placed with tumor-bearing side up, and the pictures were taken and recorded respectively for each group; 2. after the tumor was removed, the tumor weight was weighed first. T/C (percentage value of the tumor weight between the treatment group and the control group) was calculated, and then the tumors from each group were placed in order. The pictures of the tumors were taken and recorded.
All the experiment results were expressed as average tumor volume±SE (standard error). For statistical analysis, one-way analysis of variance (one-way ANOVA) and LSD multiple comparisons method were used for the relative tumor volume data, comparing the significant difference of the relative tumor volumes between the groups. p<0.05 indicates the significant difference.

In data set [7] the test system is K562 human chronic myelogenous leukemia. Nature of the data set: Subcutaneous tumor model of K562 human chronic myelogenous leukemia. It is filed as in vivo, NOD/SCID mice. As to conditions: 5 mg/kg; for Relative tumor volume (x ± SE) / Tumor volume (x ± SE): intravenous twice a week. The procedure:
K562 cells were subcutaneously inoculated at the back of NOD/SCID mice right side so as to establish a subcutaneous xenograft animal model of human chronic myelogenous leukemia. When the average tumor volume reached 130 mm^3, the experiment mice were divided to different groups, with 8 mice for each group, and the drugs were administrated by intravenous injections twice a week. The effect was evaluated based on relative tumor proliferation ratio (T/C %).
Tumor cells were routinely passaged twice a week. Tumor cells in exponential growth phase were collected, then suspended in a mixture of PBS: matrigel with equal volume ratio and placed on ice for tumor inoculation.
5×10^6 K562 cells were subcutaneously inoculated at the back of experiment mice right side. The mice were monitored at regular intervals for the tumor growth. When tumor grew to average 130 mm^3, the mice were divided to groups randomly according to tumor volume and mouse body weight, and were administrated.
as §1
The calculation formula for tumor volume is as follows: tumor volume (mm^3)=0.5×(long diameter of the tumor×short diameter of the tumor^2). RTV and T/C ratios were calculated according to the tumor volumes of the treatment groups and the control group. RTV refers to relative tumor volume. T/C ratio refers to the percentage value of the average tumor volumes between the treatment groups and the control group at a time point after the treatment, which reflects the anti-tumor effects of different treatment groups.
All the experiment results were expressed as the average tumor volume±SE (standard error). For statistical analysis, since the variances of relative tumor volume data were different, one-way analysis of variance (one-way ANOVA) and Dunnett T3 method for multiple comparisons were used to compare significant difference of relative tumor volumes between the groups. p<0.05 indicated the significant difference.

“conjugate of methoxy PEG dipeptide acid of glutamic acid (20K)-dasatinib [DSR-1]”: in data set [1] (at 60 min), the degradation came to 60%.
Take `CCc1c2c(nc3ccc(OC(=O)N4CCC(N5CCCCC5)CC4)cc13)-c1cc3c(c(=O)n1C2)COC(=O)[C@]3(O)CC` [CPT-11, irinotecan hydrochloride]: the “Body weight, Beginning” value in data set [2] (15 mg/kg, q3w × 3w) was determined as 18.2 g; in data set [2] (45 mg/kg, qw × 3w), 18.6 g; in data set [3] (15 mg/kg, q3w × 3w) it was 18.9 g; in data set [3] (45 mg/kg, qw × 3w), 19.7 g; in data set [5] (15 mg/kg, q3w × 3w), 18.1 g. The “Body weight, End” value in data set [2] (15 mg/kg, q3w × 3w) is recorded as 16.0 g; in data set [2] (45 mg/kg, qw × 3w), 16.2 g; in data set [3] (15 mg/kg, q3w × 3w) it was 18.0 g; in data set [4] (15 mg/kg, q3w × 3w), 16.6 g; in data set [4] (45 mg/kg, qw × 3w), 15.1 g. Also, the “RTV (mean ± SD)” value is reported as 3.79 ± 1.21*^, in data set [2] (15 mg/kg, q3w × 3w); 8.69 ± 3.43 in data set [2] (45 mg/kg, qw × 3w); 7.39 ± 5.22**^, in data set [3] (15 mg/kg, q3w × 3w); 12.80 ± 3.91 in data set [3] (45 mg/kg, qw × 3w); 2.57 ± 0.66 in data set [4] (15 mg/kg, q3w × 3w); 4.10 ± 0.73 in data set [4] (45 mg/kg, qw × 3w). Further, the “RTV (mean ± SD)” value in data set [5] (15 mg/kg, q3w × 3w) is reported as 7.67 ± 2.88**^,; in data set [5] (45 mg/kg, qw × 3w) it was 9.87 ± 4.87. Besides, the T/C in data set [2] (15 mg/kg, q3w × 3w) is reported as 27.27%; in data set [2] (45 mg/kg, qw × 3w) it was 62.52%; in data set [3] (15 mg/kg, q3w × 3w) it was 55.69%; in data set [3] (45 mg/kg, qw × 3w) it was 96.46%; in data set [4] (15 mg/kg, q3w × 3w), 39.84%; in data set [4] (45 mg/kg, qw × 3w), 63.56%. In addition, the T/C in data set [5] (15 mg/kg, q3w × 3w) came out at 53.26%; in data set [5] (45 mg/kg, qw × 3w), 68.54%. In addition, the “TV (mean ± SD) d0” value in data set [2] (15 mg/kg, q3w × 3w) is reported as 121 ± 14 mm^3; in data set [2] (45 mg/kg, qw × 3w), 116 ± 13 mm^3; in data set [3] (15 mg/kg, q3w × 3w), 137 ± 33 mm^3; in data set [3] (45 mg/kg, qw × 3w) it was 136 ± 44 mm^3; in data set [4] (15 mg/kg, q3w × 3w), 129 ± 26 mm^3; in data set [4] (45 mg/kg, qw × 3w), 126 ± 25 mm^3. Besides, the “TV (mean ± SD) d0” value was 112 ± 21 mm^3 in data set [5] (15 mg/kg, q3w × 3w) and 110 ± 15 mm^3 in data set [5] (45 mg/kg, qw × 3w). In addition, the “TV (mean ± SD) d28” value is 924 ± 443 mm^3 in data set [3] (15 mg/kg, q3w × 3w); 1753 ± 878 mm^3 in data set [3] (45 mg/kg, qw × 3w); 322 ± 37 mm^3 in data set [4] (15 mg/kg, q3w × 3w); 512 ± 99 mm^3 in data set [4] (45 mg/kg, qw × 3w); 831 ± 305 mm^3 in data set [5] (15 mg/kg, q3w × 3w, d28). For the same compound, the “number of animals with vanished tumor” value stood at 0 in data set [3] (15 mg/kg, q3w × 3w) and 0 in data set [3] (45 mg/kg, qw × 3w).
For the compound “conjugate of methoxy PEG dipeptide of glutamic acid and glycine (20K)-dasatinib [DSR-2]”, in data set [1] (at 90 min), the degradation came out at 50%.
As to `Cc1nc(Nc2ncc(C(=O)Nc3c(C)cccc3Cl)s2)cc(N2CCN(CCO)CC2)n1` [dasatinib], the “T/C (relative tumor proliferation ratio)” value in data set [6] (22nd day after grouping, compared with the solvent control group) amounted to 73%; in data set [7] (14th day after the grouping, compared with the solvent control group), 12.4%. For the same compound, the “Relative tumor volume (x ± SE)” value is given as 1148.9 ± 112.7 in data set [6] (22nd day after grouping), 1235.3 ± 119.6 in data set [6] (25th day after grouping), 226.9 ± 30.0 in data set [7] (14th day after the grouping) and 289.1 ± 46.9 in data set [7] (21st day after grouping). Moreover, the “Tumor volume (x ± SE)” value in data set [7] (14th day after the grouping) was 311 mm^3 and 311 ± 55 mm^3; in data set [7] (21st day after grouping) it was 391 mm^3 and 391 ± 79 mm^3.
